Results: US8436012B2, “Imidazopyridin-2-one derivatives” (Daiichi Sankyo Company, Limited, priority 2008, dated 2013)

Legend:
human mTOR = target: T1, human mTOR (Homo sapiens, UniProt P42345); assay: mTOR Kinase Activity Inhibition Test; type: biochemical; details: His-tagged mTOR (1362C), biotinylated peptide substrate, ATP, 3 hours at room temperature, fluorescence resonance energy transfer 665 nm/620 nm; read-out: IC50 value of mTOR enzyme inhibitory activity
T1 construct: the portion corresponding to 1362-2549aa at the C terminus of human mTOR; made in house
T1 sequence (P42345 1362-2549): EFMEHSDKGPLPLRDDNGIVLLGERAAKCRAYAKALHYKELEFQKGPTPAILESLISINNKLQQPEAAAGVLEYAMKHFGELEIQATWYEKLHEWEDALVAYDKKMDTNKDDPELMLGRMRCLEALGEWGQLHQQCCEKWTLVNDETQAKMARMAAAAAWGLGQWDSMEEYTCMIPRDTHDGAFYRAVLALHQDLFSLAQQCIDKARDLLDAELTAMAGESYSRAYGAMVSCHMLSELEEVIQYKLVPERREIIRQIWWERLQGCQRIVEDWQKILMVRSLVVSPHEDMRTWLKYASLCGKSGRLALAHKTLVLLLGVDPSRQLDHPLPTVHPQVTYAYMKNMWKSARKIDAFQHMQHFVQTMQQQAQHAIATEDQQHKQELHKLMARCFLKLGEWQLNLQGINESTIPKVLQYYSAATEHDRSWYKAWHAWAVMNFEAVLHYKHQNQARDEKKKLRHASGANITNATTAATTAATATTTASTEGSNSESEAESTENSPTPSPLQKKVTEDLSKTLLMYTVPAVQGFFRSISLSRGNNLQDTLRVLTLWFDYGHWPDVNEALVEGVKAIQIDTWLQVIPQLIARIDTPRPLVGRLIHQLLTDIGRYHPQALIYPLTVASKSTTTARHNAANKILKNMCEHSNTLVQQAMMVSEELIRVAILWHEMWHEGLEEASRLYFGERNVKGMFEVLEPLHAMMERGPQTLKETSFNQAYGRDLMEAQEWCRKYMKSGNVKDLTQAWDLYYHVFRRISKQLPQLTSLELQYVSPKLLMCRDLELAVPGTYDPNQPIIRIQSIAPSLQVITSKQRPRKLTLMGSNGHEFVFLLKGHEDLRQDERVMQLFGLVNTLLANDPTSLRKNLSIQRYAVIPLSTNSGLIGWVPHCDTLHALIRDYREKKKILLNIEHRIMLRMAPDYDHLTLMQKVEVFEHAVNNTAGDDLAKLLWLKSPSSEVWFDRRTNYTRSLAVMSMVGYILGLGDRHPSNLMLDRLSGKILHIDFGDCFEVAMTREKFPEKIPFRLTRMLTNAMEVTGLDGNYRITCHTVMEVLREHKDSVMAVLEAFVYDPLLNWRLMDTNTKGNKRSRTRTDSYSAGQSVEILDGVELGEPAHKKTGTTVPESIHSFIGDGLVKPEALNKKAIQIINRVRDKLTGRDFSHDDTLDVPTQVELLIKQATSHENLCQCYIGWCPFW
Outline: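 Purified His-tagged human mTOR (1362–2549aa, from HEK293) was used with biotinylated peptide (8 μg/mL in enzyme solution) in HEPES pH 7.5 with 20 mM MnCl2. Compounds were diluted in 20 μM ATP solution, and the reaction ran 3 h at RT. Phospho-S6K(Thr389) HTRF was read as the 665/620 nm ratio, and IC50 came from % inhibition versus controls.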

WM-266-4 cells = assay: Cell Proliferation Inhibitory Test; type: cell-based; details: Homo sapiens, 72 h, cultured three days with test compound, MTT, read-out: 50% cell proliferation inhibitory activity (GI50 value)
Outline: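 Cells cultured overnight, then exposed to serially diluted compound for three days; cell amount read by MTT. GI50 solved from 100×[(T−T0)/(C−T0)]=50, with T0 the value at time of compound addition and C the untreated three-day control.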

Row | SMILES | IC50 (human mTOR) [nM] | GI50 (WM-266-4 cells) [nM]
1 | O=c1[nH]c2ncc(-c3cnc4[nH]cc(F)c4c3)cc2n1CC1CCOCC1 [Example 96, 6-(3-Fluoro-1H-pyrrolo[2,3-b]pyridin-5-yl)-1-(tetrahydro-2H-pyran-4-ylmethyl)-1,3-dihydro-2H-imidazo[4,5-b]pyridin-2-one] | < 50 | < 3000
2 | O=c1[nH]c2ncc(-c3cnc4[nH]ccc4c3)cc2n1CC1CCS(=O)(=O)CC1 [Example 97, 1-[(1,1-Dioxidotetrahydro-2H-thiopyran-4-yl)methyl]-6-(1H-pyrrolo[2,3-b]pyridin-5-yl)-1,3-dihydro-2H-imidazo[4,5-b]pyridin-2-one] | < 50 | 3000 to 25000
3 | CO[C@H]1CC[C@H](Cn2c(=O)[nH]c3ncc(-c4cnc5[nH]ccc5c4)cc32)CC1 [Example 98, 1-[(trans-4-Methoxycyclohexyl)methyl]-6-(1H-pyrrolo[2,3-b]pyridin-5-yl)-1,3-dihydro-2H-imidazo[4,5-b]pyridin-2-one] | < 50 | < 3000
4 | CO[C@H]1CC[C@@H](Cn2c(=O)[nH]c3ncc(-c4cnc5[nH]ccc5c4)cc32)CC1 [Example 99, 1-[(cis-4-Methoxycyclohexyl)methyl]-6-(1H-pyrrolo[2,3-b]pyridin-5-yl)-1,3-dihydro-2H-imidazo[4,5-b]pyridin-2-one] | < 50 | < 3000
5 | N#CC1(Cn2c(=O)[nH]c3ncc(-c4cnc5[nH]ccc5c4)cc32)CCOCC1 [Example 100, 4-{[2-Oxo-6-(1H-pyrrolo[2,3-b]pyridin-5-yl)-2,3-dihydro-1H-imidazo[4,5-b]pyridin-1-yl]methyl}tetrahydro-2H-pyran-4-carbonitrile] | < 50 | < 3000
6 | O=c1[nH]c2ncc(-c3cnc4[nH]ccc4c3)cc2n1C[C@H]1CC[C@H](O)CC1 [Example 101, 1-[(trans-4-Hydroxycyclohexyl)methyl]-6-(1H-pyrrolo[2,3-b]pyridin-5-yl)-1,3-dihydro-2H-imidazo[4,5-b]pyridin-2-one] | < 50 | < 3000
7 | O=c1[nH]c2ncc(-c3cnc4[nH]ccc4c3)cc2n1C[C@H]1CC[C@@H](O)CC1 [Example 102, 1-[(cis-4-Hydroxycyclohexyl)methyl]-6-(1H-pyrrolo[2,3-b]pyridin-5-yl)-1,3-dihydro-2H-imidazo[4,5-b]pyridin-2-one] | < 50 | < 3000
8 | O=c1[nH]c2ncc(-c3cnc4[nH]ccc4c3)cc2n1CC1CCC(F)(F)CC1 [Example 103, 1-[(4,4-Difluorocyclohexyl)methyl]-6-(1H-pyrrolo[2,3-b]pyridin-5-yl)-1,3-dihydro-2H-imidazo[4,5-b]pyridin-2-one] | < 50 | < 3000
9 | O=c1[nH]c2ncc(-c3cnc4[nH]ccc4c3)cc2n1CC1CCOC1 (centres unmarked) [Example 107, 6-(1H-Pyrrolo[2,3-b]pyridin-5-yl)-1-(tetrahydrofuran-3-ylmethyl)-1,3-dihydro-2H-imidazo[4,5-b]pyridin-2-one] | < 50 | < 3000
10 | O=c1[nH]c2ncc(-c3cnc4[nH]ccc4c3)cc2n1CC1COCCN1 (centres unmarked) [Example 108, 1-(Morpholin-3-ylmethyl)-6-(1H-pyrrolo[2,3-b]pyridin-5-yl)-1,3-dihydro-2H-imidazo[4,5-b]pyridin-2-one] | < 50 | < 3000
11 | CN1C(=O)COC[C@@H]1Cn1c(=O)[nH]c2ncc(-c3cnc4[nH]ccc4c3)cc21 [Example 109, 1-{[(3S)-4-Methyl-5-oxomorpholin-3-yl]methyl}-6-(1H-pyrrolo[2,3-b]pyridin-5-yl)-1,3-dihydro-2H-imidazo[4,5-b]pyridin-2-one] | < 50 | 3000 to 25000
12 | O=C1COC(Cn2c(=O)[nH]c3ncc(-c4cnc5[nH]ccc5c4)cc32)CN1 (centres unmarked) [Example 110, 1-[(5-Oxomorpholin-2-yl)methyl]-6-(1H-pyrrolo[2,3-b]pyridin-5-yl)-1,3-dihydro-2H-imidazo[4,5-b]pyridin-2-one] | < 50 | 3000 to 25000
13 | CO[C@H]1CC[C@@H](Cn2c(=O)[nH]c3ncc(-c4cnc5[nH]cc(Cl)c5c4)cc32)CC1 [Example 115, 6-(3-Chloro-1H-pyrrolo[2,3-b]pyridin-5-yl)-1-[(cis-4-methoxycyclohexyl)methyl]-1,3-dihydro-2H-imidazo[4,5-b]pyridin-2-one] | < 50 | < 3000

Continued, in another order:

Row | IC50 (human mTOR) [nM] | SMILES | GI50 (WM-266-4 cells) [nM]
14 | < 50 | O=c1[nH]c2ncc(-c3cnc4[nH]cc(Cl)c4c3)cc2n1C[C@H]1CC[C@@H](O)CC1 [Example 116, 6-(3-Chloro-1H-pyrrolo[2,3-b]pyridin-5-yl)-1-[(cis-4-hydroxycyclohexyl)methyl]-1,3-dihydro-2H-imidazo[4,5-b]pyridin-2-one] | < 3000
15 | < 50 | O=c1[nH]c2ncc(-c3cnc4[nH]ccc4c3Cl)cc2n1C[C@H]1COCCO1 [Example 117, 6-(4-Chloro-1H-pyrrolo[2,3-b]pyridin-5-yl)-1-[(2S)-1,4-dioxan-2-ylmethyl]-1,3-dihydro-2H-imidazo[4,5-b]pyridin-2-one] | < 3000
16 | < 50 | O=c1[nH]c2ncc(-c3cnc4[nH]cc(F)c4c3)cc2n1C[C@H]1COCCO1 [Example 118, 1-[(2S)-1,4-Dioxan-2-ylmethyl]-6-(3-fluoro-1H-pyrrolo[2,3-b]pyridin-5-yl)-1,3-dihydro-2H-imidazo[4,5-b]pyridin-2-one] | < 3000
17 | < 50 | Cc1nc2[nH]c(=O)n(C[C@H]3COCCO3)c2cc1-c1cnc2[nH]cc(F)c2c1 [Example 119, 1-[(2S)-1,4-Dioxan-2-ylmethyl]-6-(3-fluoro-1H-pyrrolo[2,3-b]pyridin-5-yl)-5-methyl-1,3-dihydro-2H-imidazo[4,5-b]pyridin-2-one] | < 3000
18 | < 50 | O=c1[nH]c2ncc(-c3cnc4[nH]ccc4c3F)cc2n1C[C@H]1COCCO1 [Example 120, 1-[(2S)-1,4-Dioxan-2-ylmethyl]-6-(4-fluoro-1H-pyrrolo[2,3-b]pyridin-5-yl)-1,3-dihydro-2H-imidazo[4,5-b]pyridin-2-one] | < 3000
19 | < 50 | O=c1[nH]c2ncc(-c3cnc4c(c3)CCN4)cc2n1C[C@H]1COCCO1 [Example 121, 6-(2,3-Dihydro-1H-pyrrolo[2,3-b]pyridin-5-yl)-1-[(2S)-1,4-dioxan-2-ylmethyl]-1,3-dihydro-2H-imidazo[4,5-b]pyridin-2-one] | < 3000
20 | < 50 | O=c1[nH]c2ncc(-c3cnc4[nH]ccc4c3C(F)(F)F)cc2n1C[C@H]1COCCO1 [Example 122, 1-[(2S)-1,4-Dioxan-2-ylmethyl]-6-(4-(trifluoromethyl)-1H-pyrrolo[2,3-b]pyridin-5-yl)-1,3-dihydro-2H-imidazo[4,5-b]pyridin-2-one] | < 3000
21 | < 50 | CCc1c(-c2cnc3[nH]c(=O)n(C[C@H]4COCCO4)c3c2)cnc2[nH]ccc12 [Example 123, 1-[(2S)-1,4-Dioxan-2-ylmethyl]-6-(4-ethyl-1H-pyrrolo[2,3-b]pyridin-5-yl)-1,3-dihydro-2H-imidazo[4,5-b]pyridin-2-one] | < 3000
22 | < 50 | Cc1c[nH]c2ncc(-c3cnc4[nH]c(=O)n(C[C@H]5COCCO5)c4c3)c(C)c12 [Example 124, 6-(3,4-Dimethyl-1H-pyrrolo[2,3-b]pyridin-5-yl)-1-[(2S)-1,4-dioxan-2-ylmethyl]-1,3-dihydro-2H-imidazo[4,5-b]pyridin-2-one] | < 3000
23 | < 50 | Cc1c(-c2cnc3[nH]c(=O)n(C[C@H]4COCCO4)c3c2)cnc2[nH]cc(Cl)c12 [Example 125, 6-(3-Chloro-4-methyl-1H-pyrrolo[2,3-b]pyridin-5-yl)-1-[(2S)-1,4-dioxan-2-ylmethyl]-1,3-dihydro-2H-imidazo[4,5-b]pyridin-2-one] | < 3000
24 | < 50 | Cc1c(-c2cnc3[nH]c(=O)n(C[C@H]4COCCO4)c3c2)cnc2[nH]cc(F)c12 [Example 126, 1-[(2S)-1,4-Dioxan-2-ylmethyl]-6-(3-fluoro-4-methyl-1H-pyrrolo[2,3-b]pyridin-5-yl)-1,3-dihydro-2H-imidazo[4,5-b]pyridin-2-one] | < 3000
25 | < 50 | O=c1[nH]c2ncc(-c3cc4cc[nH]c4nc3Cl)cc2n1C[C@H]1COCCO1 [Example 127, 6-(6-Chloro-1H-pyrrolo[2,3-b]pyridin-5-yl)-1-[(2S)-1,4-dioxan-2-ylmethyl]-1,3-dihydro-2H-imidazo[4,5-b]pyridin-2-one] | < 3000
26 | < 50 | Cc1c(-c2cnc3[nH]c(=O)n(C[C@H]4COCCO4)c3c2)cc(F)c2[nH]ccc12 [Example 128, 1-[(2S)-1,4-Dioxan-2-ylmethyl]-6-(7-fluoro-4-methyl-1H-indol-5-yl)-1,3-dihydro-2H-imidazo[4,5-b]pyridin-2-one] | < 3000
27 | < 50 | Cc1nc2[nH]ccc2cc1-c1cnc2[nH]c(=O)n(C[C@H]3COCCO3)c2c1 [Example 129, 1-[(2S)-1,4-Dioxan-2-ylmethyl]-6-(6-methyl-1H-pyrrolo[2,3-b]pyridin-5-yl)-1,3-dihydro-2H-imidazo[4,5-b]pyridin-2-one] | < 3000
28 | < 50 | Nc1c(-c2cnc3[nH]c(=O)n(C[C@H]4COCCO4)c3c2)cnc2[nH]ccc12 [Example 130, 6-(4-Amino-1H-pyrrolo[2,3-b]pyridin-5-yl)-1-[(2S)-1,4-dioxan-2-ylmethyl]-1,3-dihydro-2H-imidazo[4,5-b]pyridin-2-one] | 3000 to 25000
